What was measured:
C. violaceum ATCC 31532 [1] = test: Violacein extraction assay (QS-mediated violacein production); type: cell-based, Chromobacterium violaceum; conditions: Chromobacterium violaceum, ATCC31532, 24 h, read-out: Inhibition-% of violacein production
Description: (§1) The initial screening of compound library was conducted using two strains of C. violaceum as model bacterium, and two assays (violacein extraction and resazurin staining) in parallel as recently optimized in [26]. For the screening assays, overnight cultures of C. violaceum were diluted in LB broth supplemented with yeast extract (LBY) (0.1% w/v, Sigma Aldrich, St. Louis, MO, USA). Culture of C. violaceum CV026 was further supplemented with 0.5 µM N-(β-ketocaproyl)-L-Homoserine lactone (3-O-C6-(L)-HSL, Cayman chemicals, Ann Arbor, MI, USA) to induce the violacein production. Bacteria (10^6 CFU/mL) was exposed to compounds (400 µM) in a total volume of 200 µL in 96-microtiter well plates (Nunc, Roskilde, Denmark), and incubated at 27 °C, with shaking at 200 rpm for 24 h. DMSO was added in untreated control wells and bacteria-free wells with only LBY were included controls. Additionally, autoinducer-free wells containing only bacteria were included in C. violaceum CV026 plates. Plates were prepared in duplicates. Quercetin dihydrate (Carl Roth GmbH, Karlsruhe, Germany) at 400 µM was used as positive control in violacein extraction assay, and azithromycin (Cayman chemicals, Ann Arbor, MI, USA) at 10 µM in viability assay. Both control compounds were prepared in DMSO. DMSO concentration was 2.5% throughout the experiments.
(§2) After incubation period of 24 h, plates were centrifuged (Allegra™ X-12R Benchtop centrifuge, Beckman Coulter Inc., Fullerton, CA, USA) at 3000 rpm for 10 min to precipitate the violacein. Supernatants were discarded from the wells by pipetting, and pellets were re-suspended in 200 μL of 96% ethanol by scraping and mixing followed by centrifugation (3000 rpm, 10 min). Thereafter, 100 μL of supernatants were transferred to sterile 96-microtiter well plates, and violacein was quantified by reading the optical density at 595 nm using Varioskan Flash. Inhibition of violacein production was expressed as inhibition percentages of the untreated biofilms (Equation (1)):Inhibition-% = [(untreated control OD595 − sample OD595)/(untreated control OD595 − media control OD595)] × 100%(1) in which untreated control = C. violaceum + DMSO, media control = LBY, and sample = C. violaceum treated with a compound. Later on, violacein extraction assay was also utilized for the determination of half inhibitory concentrations of the compounds.

C. violaceum CV026 = test: Violacein extraction assay (QS-mediated violacein production), mutant strain with exogenous autoinducer; type: cell-based, Chromobacterium violaceum; conditions: Chromobacterium violaceum, CV026, 24 h, read-out: Inhibition-% of violacein production
Description: as §1, §2

C. violaceum ATCC 31532 [2] = test: Violacein extraction assay (QS-mediated violacein production); type: cell-based; conditions: Chromobacterium violaceum, ATCC31532, read-out: Inhibition-% of violacein production
C. violaceum = tested on: C. violaceum; design: method as in PMID 27626397; conditions: cited from earlier work
[3] = tested on: Staphylococcus aureus biofilms; design: method as in PMID 24071942; conditions: cited from earlier work
cancer cell lines = tested on: cancer cell lines; design: method as in ref 56 = [56]; 56. National Center for Biotechnology Information PubChem BioAssay Database Available online: https://pubchem.ncbi.nlm.nih.gov/bioassay/924 (accessed on 28 March 2018); conditions: PubChem Bioassay database ref 56; cited from earlier work

In the case of `O=c1cc(-c2ccccc2)oc2cc(O)c(O)cc12` [Compound 916, 6,7-dihydroxy-2-phenylchromen-4-one], the inhibition at 400 µM (C. violaceum ATCC 31532 [1]) is reported as 102%, the inhibition at 400 µM (C. violaceum CV026) is reported as 95.7% and the inhibition at 40 µM (C. violaceum ATCC 31532 [2]) is reported as 35.8 ± 1.1%. For the same molecule, the “Anti-QS activity class in earlier screening” value (C. violaceum) was “moderately active”, the “Anti-biofilm activity against S. aureus” value [3] was “preventing biofilm formation and by eradicating pre-formed biofilms” and the Anti-cancer activity (cancer cell lines) was “inhibition of cancer cell lines”.
